Measured values reported in PubChem BioAssay (NCI).
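Values below derive from 48-hour exposures of cells grown in 96-well plates, with endpoints linearly interpolated between the two concentrations bracketing the appropriate inhibition level. GI50 = concentration required for 50% inhibition of growth. TGI: concentration producing complete growth inhibition.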

Experiments:
Experiment in all cases: growth of human tumour cells (NCI), 48 h
HOP-92 NSCLC = system: HOP-92 NSCLC
NCI-H23 lung = system: NCI-H23 lung
UACC-257 melanoma = system: UACC-257 melanoma
NCI/ADR-RES ovarian = system: NCI/ADR-RES ovarian
MCF7 breast = system: MCF7 breast
SW-620 colon = system: SW-620 colon
786-0 renal = system: 786-0 renal
CAKI-1 renal = system: CAKI-1 renal
EKVX NSCLC = system: EKVX NSCLC
RPMI-8226 leukemia = system: RPMI-8226 leukemia

Structure (SMILES)	TGI (HOP-92 NSCLC) [µM]	TGI (NCI-H23 lung) [µM]	TGI (UACC-257 melanoma) [µM]	TGI (NCI/ADR-RES ovarian) [µM]	TGI (MCF7 breast) [µM]	TGI (SW-620 colon) [µM]	TGI (786-0 renal) [µM]	TGI (CAKI-1 renal) [µM]	TGI (EKVX NSCLC) [µM]	GI50 (NCI-H23 lung) [µM]	GI50 (RPMI-8226 leukemia) [µM]	TGI (RPMI-8226 leukemia) [µM]	GI50 (NCI/ADR-RES ovarian) [µM]	GI50 (MCF7 breast) [µM]	GI50 (SW-620 colon) [µM]	GI50 (786-0 renal) [µM]	GI50 (CAKI-1 renal) [µM]	GI50 (HOP-92 NSCLC) [µM]	GI50 (EKVX NSCLC) [µM]	GI50 (UACC-257 melanoma) [µM]
CN(C)CC1CC/C(=C\c2ccc3c(c2)OCO3)C1=O (stereo not drawn)	33.1	24.4	20.1	12.4	19.8	14.4	13	23.1	39.4											
Cn1cc(C2=C(c3c[nH]c4ccccc34)C(=O)NC2=O)c2ccccc21		> 25		> 25	> 25	> 25	> 25	> 25		0.218	1.57	> 20.8	3.33	0.278	> 4.92	0.446	0.523			
C1CCCCc2nc3c(nc2CCC1)c1nc2c(nc1c1nc4c(nc31)CCCCCCCC4)CCCCCCCC2	> 100	> 100	> 100			> 100	> 100													
Cc1ccc2nc(NC(=O)C(=O)C(C#N)c3ccc(Cl)cc3)sc2c1 (stereo not drawn)	> 50	> 50	> 50			> 50	> 50	> 50	> 50			> 50								
CC1=C(SC#N)S(=O)(=O)N(c2ccccc2)C(C)=C1SC#N	88.7	> 100	> 100			> 100	> 100	> 100				> 100								
CC(C)N(Cc1ccc(CN(C(=O)CCl)C(C)C)cc1)C(=O)CCl	3.56	3.6		7.73	12.1	4.22	1.3	3.39	5.63	1.1	2.06	5.13	2.49	1.7	1.45	0.351	1.77	1.83	2.36	
Cc1cc(C)c(C#N)c(Sc2nc(C)c([N+](=O)[O-])c(C)c2C#N)n1	7.88	10.4		33.1	11.6	4.65	17.9	5.65		2.87	2.84	8.16	4.01	3.11	2.07	5.04	2.17	2.68		
NC1c2ccccc2Nc2ccccc21	16.1	17.5	17.4			14.4	15.9	17.4	20.7			19.6								
CCCOC(=O)c1c(C)n(C)c2scc[n+]12	> 100	> 100	> 100	> 100	> 100	> 100	> 100	> 100	> 100	34.2			> 100	31.2	67.4	80.1	39.9	15.1	13.7	40.8
COCCOc1cc(C)cc(/C=C(C)/C=C/C2=C(C)CCCC2(C)C)n1	> 100	> 100	> 100			> 100	> 100	> 100	> 100			52.3								
COc1ccc2nc(C(=O)c3ccccc3)c(C)cc2c1	67.1	11.1	26.4			> 37.4	38.1	> 100	> 100			> 100								
O=[N+]([O-])c1ccc(Cl)c(CNc2ncnc3c2ncn3C2CCCCO2)c1 (stereo not drawn)	> 100	> 100		> 100	62	> 100	> 100	> 100	> 100			> 100								
N#CC(C(=O)CCCC(=O)Nc1ccc(Cl)cc1Cl)c1ccccc1 (stereo not drawn)	> 100	> 100	> 100			> 100	> 100	> 100	> 100											
N#CC1=C(N)Oc2c(ccc3ccccc23)C1c1cc(=O)oc2ccc(Cl)cc12 (stereo not drawn)	42	> 100	91.7	36.8	22.1	> 100	> 100		> 100	4.96	1.68	20	0.522	0.347	0.411	0.646		0.556	3.79	14.4
COc1cc(OC)cc(C2C3=C(COC3=O)Nc3cc(OC)ccc32)c1 (stereo not drawn)		> 43.7	> 100		19.9	> 70.8	30.9	> 100	> 100	< 0.01	< 0.01	> 43.9	< 0.01	< 0.01	< 0.01	0.0203	< 0.01		< 0.01	> 36.9
COC1=CC(C2c3cc4c(cc3[C@@H](Nc3ccc(F)cc3)C3COC(=O)[C@H]23)OCO4)=CC(=O)C1=O (stereo partly drawn)	31.7	9.97	> 63.9			> 50.1	11.4	31.9	> 59.1			> 100								
O=C(O)CCNS(=O)(=O)c1ccc2ccccc2c1	> 100	> 100	> 100			> 100	> 100	> 100	> 100			> 100								
Cc1cccc(C(=O)O)c1C(=O)c1cccc2ccccc12		> 100	> 100			> 100	> 100	> 100	> 100											
CC1OC(=O)C(O)=C1O (stereo not drawn)	> 100	> 100	> 100			> 100	> 100	> 100	> 100			> 100								
CCC(C)CC(C)CC(C)/C=C(\C)C1=C(C)CC(C)(O)O1 (stereo not drawn)	79.7	> 100	> 100			> 100	> 100	> 100	> 100			90.7								
